Laboratory results reported in patent publication US5164367A, “Method of using copper(II) containing compounds to accelerate wound healing” (ProCyte Corporation, priority 1990, dated 1992).

Key:
[1] = test system: wound chambers in healing impaired rats (granulation tissue formation); assay: Wound chamber model in cortisone acetate treated (healing impaired) rats, I.M. injection; assay type: in vivo
Description: (§1) The chambers were removed at day 15 and 29.
(§2) After implantation of the chambers, the rats were subsequently injected with Cortisone Acetate (10 mg I.M. daily, Cortone Acetate, Merck) to impair the healing response. After allowing for encapsulation of the chambers, the rats were injected I.M. (in the opposite leg from the cortisone injection) with 0.1 ml of either a saline solution containing 10 mg/ml of glycyl-L-histidyl-L-lysine:copper(II) (2:1 molar ratio) or saline.
as §2, with “containing 19” for “containing 10”, “of glycyl-L-histidyl-L-lysyl-valyl-phenylalanly-valine:copper(II)” for “of glycyl-L-histidyl-L-lysine:copper(II) (2:1 molar ratio)”
as §2, with “the copper(II) compounds listed at the dosage specified in Table 4,” for “either a saline solution containing 10 mg/ml of glycyl-L-histidyl-L-lysine:copper(II) (2:1 molar ratio)”

[2] = test system: wound chambers in rats (granulation tissue formation); assay: Wound chamber model in rats, compounds injected directly into the wound chambers;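 also: compounds given as 0.2 ml injections into encapsulated wound chambers in rats on set days, chambers removed at day 15 or 29, contents measured per chamber versus saline-injected chambers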
[3] = test system: wound chambers in normal rats (granulation tissue formation); assay: Subcutaneous stainless steel wound chamber model, I.M. injection, normal rats; assay type: in vivo
Excerpt: The subcutaneous implantation of stainless steel wound chambers in rats provides a model for the healing of open cavity wounds. This model in many ways mimics the early events in the formation of granulation tissue found in many types of wounds and surgical defects. Implantation of these chambers triggers a series of responses which reflect the series of phases involved in wound healing--fibrin clot formation, infiltration of white cells, collagen synthesis, and new blood vessel formation.
as §1
After allowing for encapsulation of the chambers, the rats were injected I.M. with 0.1 ml of either a saline solution containing 10 mg/ml glycyl-L-histidyl-L-lysine:copper(II) (2:1 molar ratio) or saline.

[4] = test system: 15 mm full-thickness excision wound in mice; assay: Full thickness defect model in mice, I.M. injection; assay type: in vivo
Excerpt: Following an acclimation period, mice are anesthetized with I.P. pentobarbital and prepped for surgery. The hair is plucked from a wide area of the mid-back. An ink stamp bearing a 15 mm diameter circle is used to mark the skin for subsequent full-thickness excision. Tissue is excised to the fascia underlying the paniculus carnosus muscle. Following excision, hemostasis is achieved through irrigation and the use of sterile gauze pads.
Mice received a first I.M. treatment of GHL-Cu following hemostasis, Day 0. Injections consisted of 0.1 mg of GHL-Cu in a volume of 0.1 ml. Mice used as controls received injections of saline. Injections were repeated on days 1, 2, 3, 6, 7, 8, 9, 10, and 13.
The residual wound surface area is measured on days 1, 7, 10 and 14. The final comparison is performed on Day 14. Table 5 below illustrates that I.M. injection of GHL-Cu resulted is an approximately 75% smaller residual wound size at 14 days.

[5] = test system: 2.0x2.0 cm full thickness skin defects in pigs; assay: Full thickness skin defects in pigs, I.M. injection, punch biopsy analysis; assay type: in vivo, domestic pigs; conditions: pig
Description: The systemic application of GHL-Cu increases the formation of granulation tissue in pigs. Two domestic pigs approximately 29-31 pounds, about 8 weeks old, were anesthetized with Ketamine (30 mg/Kg) and Rompum (5 mg/Kg). A series of full thickness skin defects measuring 2.0×2.0 cm were created on the backs of each pig and bandaged with gauze and adhesive tape. One pig was treated with I.M. injections of strerile saline and the other with a solution of GHL-Cu (30 mg/ml). Each pig received 1.0 ml injections of either the saline or GHL-Cu solution on days 0, 1, 2, 5, 6, 7, 8, 9, 12, and 13.
Punch biopsy samples were taken from the centers of the healing wounds on day 7 and day 12 and analyzed for the biochemical parameters of granulation tissue and described in Example 10.

[6] = Table 8 part A, 2.0 mg/injection, saline control 4.5 ± 1.0
[7] = Table 8 part A, 2.0 mg/injection, saline control 49 ± 9
[8] = Table 8 part A, 2.0 mg/injection, saline control 75 ± 11
[9] = Table 8 part A, 2.0 mg/injection, saline control 703 ± 244
[10] = healing impaired (cortisone) rats, 0.3 mg/injection, saline control 502 ± 145
[11] = cortisone treated rats, 0.1 ml of 10 mg/ml

O=S(=O)([O-])[O-].[Cu+2] [CuSO4, cupric sulfate]
COLLAGEN ([1]; healing impaired (cortisone) rats, 0.2 mg/injection, saline control 502 ± 145): 976 ± 343 μg HP/chamber

alanylL-histidyl-L-lysine:copper(II) [AHL:Cu]
ANGIOGENESIS [2, 6]: 10.2 ± 6.5 Units AP/chamber | PROTEIN [2, 7]: 46 ± 14 mg/chamber | WET WEIGHT [2, 8]: 74 ± 22 mg | COLLAGEN [2, 9]: 1565 ± 520 μg HP/chamber

carnosine:copper(II) [CARN:Cu]
COLLAGEN [1, 10]: 832 ± 174 μg HP/chamber

citrate:copper(II) [CITRATE:Cu]
COLLAGEN ([1]; healing impaired (cortisone) rats, 0.5 mg/injection, saline control 502 ± 145): 976 ± 343 μg HP/chamber

glycyl-L-histidyl-L-lysine:copper(II) [GHL:Cu]
ANGIOGENESIS ([3]; 1.0 mg/injection, saline control 2.2 ± 1.1): 3.0 ± 1.5 Units AP/chamber | PROTEIN ([3]; 1.0 mg/injection, saline control 36 ± 13): 55 ± 19 mg/chamber | DRY WEIGHT ([3]; 1.0 mg/injection, saline control 51 ± 15): 75 ± 25 mg | COLLAGEN ([3]; 1.0 mg/injection, saline control 376 ± 86): 1273 ± 711 μg HP/chamber | biochemical healing parameters (vs saline) ([3]; 0.1 ml of 10 mg/ml): significantly increased | healing response in healing impaired animals relative to normal animals [1, 11]: increased the healing response in the healing impaired animals to the level found in the normal animals | level of all the biochemical parameters examined compared to control animals [1, 11]: increased | ANGIOGENESIS ([1]; healing impaired (cortisone) rats, 1.0 mg/injection, saline control 0.5 ± 0.3): 1.5 ± 1.6 Units AP/chamber | PROTEIN ([1]; healing impaired (cortisone) rats, 1.0 mg/injection, saline control 11 ± 8): 25 ± 9 mg/chamber | DRY WEIGHT ([1]; healing impaired (cortisone) rats, 1.0 mg/injection, saline control 20 ± 12): 35 ± 13 mg | COLLAGEN ([1]; healing impaired (cortisone) rats, 1.0 mg/injection, saline control 187 ± 101): 366 ± 74 μg HP/chamber | RESIDUAL WOUND SURFACE AREA DAY 14 ([4]; 0.1 mg in 0.1 ml per injection, saline control 1.78 ± 2.56): 0.42 ± 0.60 SQ MM | smaller residual wound size at 14 days vs saline ([4]; 0.1 mg per injection, day 14): approximately 75% | WET WEIGHT ([5]; 30 mg/injection, punch biopsies (day 7 and day 12), saline control 121 ± 7): 148 ± 11 mg | ANGIOGENESIS ([5]; 30 mg/injection, punch biopsies, saline control 0.4 ± 0.1): 2.2 ± 1.2 Units AP/chamber | COLLAGEN ([5]; 30 mg/injection, punch biopsies, saline control 628 ± 182): 855 ± 20 μg HP/chamber | visual examination of granulation tissue level ([5]; 30 mg/injection, saline treated animal: level below the skin): raised above the level of the surrounding skin | weight, collagen content, and angiogenesis in the biopsies ([5]; 1.0 ml of 30 mg/ml per injection): significant increase

glycyl-L-histidyl-L-lysyl-L-valyl-L-phenylalanyl-L-valine:copper(II) [GHLVFV:Cu]
ANGIOGENESIS ([1]; cortisone treated rats, 1.9 mg/injection, saline control 1.9 ± 0.4): 6.9 ± 6.1 Units AP/chamber | PROTEIN ([1]; cortisone treated rats, 1.9 mg/injection, saline control 32 ± 4): 45 ± 15 mg/chamber | DRY WEIGHT ([1]; cortisone treated rats, 1.9 mg/injection, saline control 65 ± 8): 84 ± 28 mg | COLLAGEN ([1]; cortisone treated rats, 1.9 mg/injection, saline control 502 ± 145): 1279 ± 1001 μg HP/chamber | level of all the biochemical parameters examined ([1]; cortisone treated rats, 0.1 ml of 19 mg/ml): increased

glycylL-(3-methyl)histidyl-L-lysine:copper(II) [G(3-Me)HL:Cu]
ANGIOGENESIS [2, 6]: 8.9 ± 5.5 Units AP/chamber | PROTEIN [2, 7]: 75 ± 9 mg/chamber | WET WEIGHT [2, 8]: 125 ± 15 mg | COLLAGEN [2, 9]: 1996 ± 288 μg HP/chamber

glycylL-histidyl-L-lysine octyl amide:copper(II) [GHL-Octyl Amide:Cu]
ANGIOGENESIS ([2]; Table 7 part A, 2.6 mg/injection, saline control 5.3 ± 3.6): 6.7 ± 1.3 Units AP/chamber | PROTEIN ([2]; Table 7 part A, 2.6 mg/injection, saline control 47 ± 20): 47 ± 6 mg/chamber | WET WEIGHT ([2]; Table 7 part A, 2.6 mg/injection, saline control 85 ± 30): 101 ± 8 mg | COLLAGEN ([2]; Table 7 part A, 2.6 mg/injection, saline control 335 ± 132): 1339 ± 265 μg HP/chamber

glycylL-histidyl-L-lysine octyl ester:copper(II) [GHL-Octyl Ester:Cu]
ANGIOGENESIS ([2]; Table 7 part B, 2.6 mg/injection, saline control 4.5 ± 1.0): 12.4 ± 3.6 Units AP/chamber | PROTEIN ([2]; Table 7 part B, 2.6 mg/injection, saline control 49 ± 9): 66 ± 8 mg/chamber | WET WEIGHT ([2]; Table 7 part B, 2.6 mg/injection, saline control 75 ± 11): 106 ± 8 mg | COLLAGEN ([2]; Table 7 part B, 2.6 mg/injection, saline control 703 ± 244): 1918 ± 565 μg HP/chamber

glycylL-histidyl-L-lysyl-L-tryptophan:copper(II) [GHLW:Cu]
ANGIOGENESIS ([2]; Table 7 part A, 3.1 mg/injection, saline control 5.3 ± 3.6): 7.7 ± 1.6 Units AP/chamber | WET WEIGHT ([2]; Table 7 part A, 3.1 mg/injection, saline control 85 ± 30): 94 ± 14 mg | COLLAGEN ([2]; Table 7 part A, 3.1 mg/injection, saline control 335 ± 132): 1508 ± 128 μg HP/chamber

glycylL-histidyl-caprolactam:copper(II) [GHCap:Cu]
ANGIOGENESIS [2, 6]: 10.7 ± 3.1 Units AP/chamber | PROTEIN [2, 7]: 60 ± 11 mg/chamber | WET WEIGHT [2, 8]: 98 ± 13 mg | COLLAGEN [2, 9]: 1699 ± 365 μg HP/chamber

glycylglycyl-glycine:copper(II) [GGG:Cu]
COLLAGEN [1, 10]: 829 ± 210 μg HP/chamber

histidylglycyl-L-lysine:copper(II) [HGL:Cu]
ANGIOGENESIS [2, 6]: 10.4 ± 3.9 Units AP/chamber | PROTEIN [2, 7]: 58 ± 9 mg/chamber | WET WEIGHT [2, 8]: 104 ± 13 mg | COLLAGEN [2, 9]: 2025 ± 456 μg HP/chamber

lysylL-histidyl-glycyl-L-valyl-L-phenylalanyl-L-valine:copper(II) [LHGVFV:Cu]
ANGIOGENESIS ([2]; Table 8 part B, 3.8 mg/injection, saline control 5.3 ± 3.6): 8.0 ± 1.3 Units AP/chamber | PROTEIN ([2]; Table 8 part B, 3.8 mg/injection, saline control 47 ± 20): 37 ± 9 mg/chamber | WET WEIGHT ([2]; Table 8 part B, 3.8 mg/injection, saline control 85 ± 30): 95 ± 18 mg | COLLAGEN ([2]; Table 8 part B, 3.8 mg/injection, saline control 335 ± 132): 1630 ± 275 μg HP/chamber
